GI50 and TGI data for eight molecules are collected here from PubChem BioAssay (NCI).

Where “and” joins values, the source holds several entries; their conditions need not be identical. Equal entries are not always repeated.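 All cell lines were grown in 96-well plates and treated with compound for 48 hours. GI50 = concentration required for 50% inhibition of growth. The concentration for full growth arrest is given as TGI.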

Test systems include SF-539 CNS; DU-145 prostate; SK-MEL-2 melanoma; BT-549 breast; NCI/ADR-RES ovarian; TK-10 renal; HOP-92 NSCLC; UO-31 renal; SN12C renal; UACC-257 melanoma.
Holding throughout (assay): NCI-60 cell line screen, 48 h

As to `Cn1c(=O)c2[nH]cnc2n(C)c1=O.[CH2-]C(Cc1cccc2cc(C(=O)O)c(=O)oc12)OC.[Hg+2].[OH-]` (configuration not stated), the GI50 with SF-539 CNS is 14.6 µM; in the test on DU-145 prostate, 17 µM; in the test with SK-MEL-2 melanoma, 17.4 µM; with BT-549 breast it was 17.3 µM; in the test with NCI/ADR-RES ovarian it was 19.8 µM; with TK-10 renal, 19.3 µM. The GI50 was 15.6 µM in the test with HOP-92 NSCLC, 16.1 µM in the test on UO-31 renal, 18 µM in the test with SN12C renal and 17.9 µM in the test on UACC-257 melanoma. Moreover, the TGI came to 29.8 µM in the test with SF-539 CNS; 31.6 µM with DU-145 prostate; 31.5 µM in the test on SK-MEL-2 melanoma; 31.2 µM in the test with BT-549 breast; 38.1 µM with NCI/ADR-RES ovarian; 33.4 µM in the test on TK-10 renal. For the same molecule, the TGI in the test on HOP-92 NSCLC is 29.9 µM; in the test on UO-31 renal, 29.8 µM; in the test on SN12C renal, 32.5 µM; with UACC-257 melanoma it was 31.8 µM.

In the case of `CCCNC(=O)Nc1ccc2c(c1)Cc1cc(N(CCCl)CCCl)ccc1-2`, the TGI with SF-539 CNS was 66.2 µM; in the test on DU-145 prostate, 60.9 µM; in the test on SK-MEL-2 melanoma it was 62.9 µM; in the test with BT-549 breast, 85 µM; with NCI/ADR-RES ovarian, more than 100 µM; in the test on TK-10 renal, more than 100 µM. The TGI in the test on HOP-92 NSCLC was 67.8 µM; in the test with UO-31 renal, 82.2 µM; in the test on SN12C renal it was more than 100 µM; with UACC-257 melanoma, more than 100 µM.

As to `COC(=O)C1=C(O)C(C(=O)OC)[C@@]2(O)[C@@H](C(=O)OC)C(c3ccccc3Cl)C[C@@H]1[C@@H]2C(=O)OC` (some centres not stated), the GI50 was 14 µM in the test with SF-539 CNS; 14.9 µM in the test with DU-145 prostate; 3.62 µM in the test with SK-MEL-2 melanoma; 7.65 µM in the test with BT-549 breast; 3.16 µM in the test with NCI/ADR-RES ovarian; 10.3 µM in the test on TK-10 renal. Besides, the GI50 in the test on HOP-92 NSCLC was 16.1 µM; in the test with UO-31 renal, 6.14 µM; in the test on SN12C renal it was 3.96 µM; in the test on UACC-257 melanoma, 15.9 µM. Further, the TGI with SF-539 CNS stood at 36.7 µM; with DU-145 prostate it was 32.9 µM; in the test on SK-MEL-2 melanoma, 17.7 µM; in the test with BT-549 breast it was 33.8 µM; in the test with NCI/ADR-RES ovarian, 15.9 µM; in the test on TK-10 renal, 25.4 µM. The TGI in the test on HOP-92 NSCLC was 54.2 µM; in the test with UO-31 renal, 19.8 µM; with SN12C renal it was 19.8 µM; in the test on UACC-257 melanoma, 38.8 µM.

Take `Nc1nc(Cl)c2ncn(Cc3ccc(-c4ccc(CCl)cc4)cc3)c2n1`: the GI50 in the test with SF-539 CNS was 10.9 µM; with DU-145 prostate, 12.6 µM; in the test with SK-MEL-2 melanoma, 33.9 µM; in the test on BT-549 breast it was 7.13 µM; with NCI/ADR-RES ovarian, 10.4 µM; in the test with TK-10 renal it was 6.44 µM. The GI50 was 1.3 µM in the test on HOP-92 NSCLC, 17.7 µM with UO-31 renal, 2.54 µM in the test on SN12C renal and 3.24 µM in the test on UACC-257 melanoma. For the same molecule, the TGI in the test with SF-539 CNS is 26.6 µM; with DU-145 prostate, 25.6 µM; in the test on SK-MEL-2 melanoma, more than 100 µM; in the test with BT-549 breast, 37.8 µM; in the test on NCI/ADR-RES ovarian, 34.3 µM; with TK-10 renal, 19.8 µM. The TGI with HOP-92 NSCLC was 23.6 µM; in the test with UO-31 renal, more than 100 µM; with SN12C renal it was 10.1 µM; with UACC-257 melanoma it was 15.2 µM.

For the molecule `C=CC(=O)Nc1cccc(Nc2nc(Nc3ccc(N4CCN(C(C)=O)CC4)cc3OC)ncc2C(F)(F)F)c1`, the GI50 with SF-539 CNS was 4.47 µM and 3.17 µM; in the test with DU-145 prostate, 4.23 µM and 2.39 µM; in the test with SK-MEL-2 melanoma it was 2.04 µM and 2.23 µM; in the test on BT-549 breast it was 4.14 µM; in the test on NCI/ADR-RES ovarian, 7.5 µM and 9.09 µM; with TK-10 renal, 0.32 µM and 0.441 µM. Moreover, the GI50 with HOP-92 NSCLC is 0.787 µM and 0.525 µM; in the test with UO-31 renal it was 2.05 µM and 1.76 µM; with SN12C renal, 4.02 µM and 2.95 µM; in the test with UACC-257 melanoma it was 3.97 µM and 2.97 µM. The TGI was > 10 µM and 14.2 µM in the test on SF-539 CNS; > 10 µM and 17.3 µM in the test with DU-145 prostate; 6.83 µM and 10.8 µM in the test with SK-MEL-2 melanoma; > 10 µM and 10.6 µM in the test with BT-549 breast; more than 74.4 µM in the test on NCI/ADR-RES ovarian; 2.16 µM and 4.03 µM with TK-10 renal. Moreover, the TGI in the test on HOP-92 NSCLC is 4.88 µM and 4.21 µM; in the test on UO-31 renal it was more than 68.6 µM; in the test with SN12C renal, > 10 µM and 54.8 µM; with UACC-257 melanoma it was > 10 µM and 68.8 µM.

Regarding `CCC(=O)OCN1C(=O)C=CC1=O`, the GI50 in the test with SF-539 CNS was 20.5 µM; in the test on DU-145 prostate, 20 µM; with TK-10 renal, 15.6 µM; in the test on HOP-92 NSCLC, 2.65 µM; with UO-31 renal, 17.5 µM; in the test on SN12C renal it was 16.2 µM. Also, in the test with UACC-257 melanoma, the GI50 is 15.7 µM. Besides, the TGI in the test on SF-539 CNS is 36.8 µM and 33.8 µM; with DU-145 prostate, 34.2 µM and 30.2 µM; with SK-MEL-2 melanoma it was 29.3 µM; with BT-549 breast it was 33.3 µM and 34.4 µM; in the test on NCI/ADR-RES ovarian, 56.2 µM and 63.5 µM; in the test on TK-10 renal, 29.3 µM and 18.4 µM. In addition, the TGI with HOP-92 NSCLC is 16.7 µM and 31.6 µM; in the test with UO-31 renal it was 31.7 µM and 20.7 µM; in the test with SN12C renal, 30.5 µM and 35.6 µM; in the test with UACC-257 melanoma it was 29.4 µM and 22.2 µM.

As for `COC(=O)[C@]1(C)CC[C@]2(C)CC[C@]3(C)C(=CC(=O)[C@@H]4[C@@]5(C)CCC(=O)NC(C)(C)[C@@H]5CC[C@]43C)[C@@H]2C1`, the GI50 is 14.6 µM in the test on SF-539 CNS; 20.9 µM in the test with DU-145 prostate; 21.6 µM in the test with SK-MEL-2 melanoma; 12.8 µM in the test on BT-549 breast; 20.2 µM with NCI/ADR-RES ovarian; 40.2 µM in the test with TK-10 renal. Moreover, the GI50 in the test with HOP-92 NSCLC is 10.7 µM; in the test on UO-31 renal it was 16.9 µM; with SN12C renal, 17.1 µM; in the test on UACC-257 melanoma, 24.4 µM. The TGI in the test on SF-539 CNS is 28.6 µM; with DU-145 prostate, 89.6 µM; in the test on SK-MEL-2 melanoma, 95.3 µM; in the test on BT-549 breast, 28 µM; with NCI/ADR-RES ovarian it was 53.6 µM; with TK-10 renal, more than 100 µM. The TGI came to 24.2 µM in the test on HOP-92 NSCLC, 33.3 µM with UO-31 renal, 35.2 µM with SN12C renal and 94.3 µM in the test on UACC-257 melanoma.

Consider `COc1cc2c3c(n(CCCN4CCN(CCO)CC4)c(=O)c2cc1OC)-c1cc2c(cc1C3=O)OCO2`, for which the GI50 is 1.46 µM in the test on SF-539 CNS; 0.107 µM in the test on DU-145 prostate; more than 100 µM in the test with SK-MEL-2 melanoma; 2.35 µM with BT-549 breast; 18.2 µM in the test on NCI/ADR-RES ovarian; 15.5 µM in the test with TK-10 renal. The GI50 was more than 21.2 µM in the test with HOP-92 NSCLC, more than 91.5 µM with UO-31 renal, more than 100 µM in the test with SN12C renal and 30.6 µM in the test with UACC-257 melanoma. For the same molecule, the TGI is 6.3 µM in the test with SF-539 CNS; 2.41 µM in the test on DU-145 prostate; more than 100 µM in the test on SK-MEL-2 melanoma; 12.3 µM in the test with BT-549 breast; more than 100 µM in the test on NCI/ADR-RES ovarian; 37 µM in the test on TK-10 renal. For the same molecule, the TGI in the test with HOP-92 NSCLC was more than 100 µM; in the test on UO-31 renal, more than 100 µM; with SN12C renal, more than 100 µM; in the test with UACC-257 melanoma, more than 81.4 µM.
